Reference: patent US12538924B2, “Pesticidally active heterocyclic derivatives with sulfur containing substituents” (SYNGENTA CROP PROTECTION AG, priority 2019, dated 2026)

Experiments:
Type in all cases: in vivo
[1] = test system: Spodoptera littoralis (Egyptian Cotton Leaf Worm); experiment: Spodoptera littoralis (Egyptian Cotton Leaf Worm), sprayed cotton leaf discs; settings: foliar, 72 h, application rate of 200 ppm, L1 larvae on sprayed cotton leaf discs, 3 days after infestation, read-out: control (mortality, anti-feeding effect or growth inhibition)
Description: Example B8: Spodoptera littoralis (Egyptian Cotton Leaf Worm)
Cotton leaf discs were placed onto agar in 24-well microtiter plates and sprayed with aqueous test solutions prepared from 10'000 ppm DMSO stock solutions. After drying the leaf discs were infested with five L1 larvae. The samples were assessed for mortality, anti-feeding effect, and growth inhibition in comparison to untreated samples 3 days after infestation. Control of Spodoptera littoralis by a test sample is given when at least one of the categories mortality, anti-feedant effect, and growth inhibition is higher than the untreated sample.

[2] = test system: Diabrotica Balteata (Corn Root Worm); experiment: Diabrotica balteata (Corn Root Worm), sprayed maize sprouts; settings: 96 h, application rate of 200 ppm, L2 larvae on sprayed maize sprouts, 4 days after infestation, read-out: effect in at least one of the two categories (mortality or growth inhibition)
Description: Example B2: Diabrotica Balteata (Corn Root Worm)
Maize sprouts placed onto an agar layer in 24-well microtiter plates were treated with aqueous test solutions prepared from 10'000 ppm DMSO stock solutions by spraying. After drying, the plates were infested with L2 larvae (6 to 10 per well). The samples were assessed for mortality and growth inhibition in comparison to untreated samples 4 days after infestation.

[3] = test system: Myzus persicae (Green Peach Aphid); experiment: Myzus persicae (Green Peach Aphid): Feeding/Contact Activity; settings: foliar, 144 h, application rate of 200 ppm, aphid population of mixed ages on sprayed sunflower leaf discs, 6 days after infestation
Description: Example B6: Myzus persicae (Green Peach Aphid): Feeding/Contact Activity
Sunflower leaf discs were placed onto agar in a 24-well microtiter plate and sprayed with aqueous test solutions prepared from 10'000 ppm DMSO stock solutions. After drying, the leaf discs were infested with an aphid population of mixed ages. The samples were assessed for mortality 6 days after infestation.

[4] = test system: Plutella xylostella (Diamond Back Moth); experiment: Plutella xylostella (Diamond Back Moth), treated artificial diet; settings: 192 h, application rate of 200 ppm, eggs on treated artificial diet, 8 days after infestation, read-out: effect in at least one of the two categories (mortality or growth inhibition)
Description: Example B5: Plutella xylostella (Diamond Back Moth)
24-well microtiter plates with artificial diet were treated with aqueous test solutions prepared from 10'000 ppm DMSO stock solutions by pipetting. After drying, Plutella eggs were pipetted through a plastic stencil onto a gel blotting paper and the plate was closed with it. The samples were assessed for mortality and growth inhibition in comparison to untreated samples 8 days after infestation.

[5] = test system: Euschistus heros (Neotropical Brown Stink Bug); experiment: Euschistus heros (Neotropical Brown Stink Bug), sprayed soybean leaves; settings: 120 h, application rate of 200 ppm, N2 nymphs on sprayed soybean leaves, 5 days after infestation, read-out: effect in at least one of the two categories (mortality or growth inhibition)
Description: Example B3: Euschistus heros (Neotropical Brown Stink Bug)
Soybean leaves on agar in 24-well microtiter plates were sprayed with aqueous test solutions prepared from 10'000 ppm DMSO stock solutions. After drying the leaves were infested with N2 nymphs. The samples were assessed for mortality and growth inhibition in comparison to untreated samples 5 days after infestation.

[6] = test system: Myzus persicae (Green Peach Aphid); experiment: Myzus persicae (Green Peach Aphid): Systemic Activity; settings: 144 h, test rate of 24 ppm, roots of infested pea seedlings placed into test solutions, 6 days
Description: Example B7: Myzus persicae (Green Peach Aphid): Systemic Activity
Roots of pea seedlings infested with an aphid population of mixed ages were placed directly into aqueous test solutions prepared from 10'000 DMSO stock solutions. The samples were assessed for mortality 6 days after placing seedlings into test solutions.

[7] = test system: Nilaparvata lugens (Brown Plant Hopper); experiment: Nilaparvata lugens (Brown Plant Hopper): Larvicide, Systemic into Water; settings: 168 h, test rate of 12.5 ppm, rice plants in nutritive solution, N3 nymphs, 7 days after infestation
Description: Example B12: Nilaparvata lugens (Brown Plant Hopper): Larvicide, Systemic into Water
Rice plants cultivated in a nutritive solution were treated with the diluted test solutions into nourishing cultivation system. 1 day after application plants were infested with ˜20 N3 nymphs. 7 days after infestation samples were assessed for mortality and growth regulation.

[8] = test system: Nilaparvata lugens (Brown Plant Hopper); experiment: Nilaparvata lugens (Brown Plant Hopper): Larvicide, Feeding/Contact; settings: 168 h, application rate of 50 ppm, N3 nymphs on sprayed rice plants, 7 days after the treatment
Description: Example B10: Nilaparvata lugens (Brown Plant Hopper): Larvicide, Feeding/Contact
Rice plants were treated with the diluted test solutions in a spray chamber. After drying plants were infested with ˜20 N3 nymphs. 7 days after the treatment samples were assessed for mortality and growth regulation.

[9] = test system: Nilaparvata lugens (Brown Plant Hopper); experiment: Nilaparvata lugens (Brown Plant Hopper): Igr, Feeding/Contact; settings: 360 h, application rate of 50 ppm, sprayed rice plants, N3 nymphs, assessed for effect on F1 generation 15 days after the treatment
Description: Example B11: Nilaparvata lugens (Brown Plant Hopper): Igr, Feeding/Contact
Rice plants were treated with the diluted test solutions in a spray chamber. After drying plants were infested with ˜20 N3 nymphs. 7 days after treatment adults were removed and 15 days after the treatment samples were assessed for effect on F1 generation.

[10] = test system: Bemisia tabaci (Cotton White Fly); experiment: Bemisia tabaci (Cotton White Fly): Feeding/Contact Activity; settings: foliar, 144 h, application rate of 200 ppm, adult white flies on sprayed cotton leaf discs, 6 days after incubation
Description: Example B1: Bemisia tabaci (Cotton White Fly): Feeding/Contact Activity
Cotton leaf discs were placed on agar in 24-well microtiter plates and sprayed with aqueous test solutions prepared from 10'000 ppm DMSO stock solutions. After drying the leaf discs were infested with adult white flies. The samples were checked for mortality 6 days after incubation.

CCS(=O)(=O)c1cccnc1N1Cc2cnc(C(F)(F)F)cc2C1=O [Compound P1, 2-(3-ethylsulfonyl-2-pyridyl)-6-(trifluoromethyl)-3H-pyrrolo[3,4-c]pyridin-1-one]
≥ 80%: percent control (mortality, anti-feedant effect or growth inhibition) at 200 ppm [1] | percent effect (mortality or growth inhibition) at 200 ppm [2] | mortality at 200 ppm [3] | percent effect (mortality or growth inhibition) at 200 ppm [4] | percent effect (mortality or growth inhibition) at 200 ppm [5] | mortality at 24 ppm [6] | mortality at 12.5 ppm [7]

CCS(=O)(=O)c1cc(C(C)(C)C#N)cnc1N1Cc2cnc(C(F)(F)F)cc2C1=O [Compound P2, 2-[5-ethylsulfonyl-6-[1-oxo-6-(trifluoromethyl)-3H-pyrrolo[3,4-c]pyridin-2-yl]-3-pyridyl]-2-methyl-propanenitrile]
≥ 80%: percent control (mortality, anti-feedant effect or growth inhibition) at 200 ppm [1] | mortality at 50 ppm [8] | percent effect (mortality or growth inhibition) at 200 ppm [2] | mortality at 50 ppm [9] | mortality at 200 ppm [3] | percent effect (mortality or growth inhibition) at 200 ppm [4] | percent effect (mortality or growth inhibition) at 200 ppm [5] | mortality at 24 ppm [6] | mortality at 200 ppm [10] | mortality at 12.5 ppm [7]

CCS(=O)(=O)c1ccc(NC)nc1N1Cc2cnc(C(F)(F)F)cc2C1=O [Compound P4, 2-[3-ethylsulfonyl-6-(methylamino)-2-pyridyl]-6-(trifluoromethyl)-3H-pyrrolo[3,4-c]pyridin-1-one]
≥ 80%: percent control (mortality, anti-feedant effect or growth inhibition) at 200 ppm [1] | mortality at 50 ppm [8] | percent effect (mortality or growth inhibition) at 200 ppm [2] | mortality at 50 ppm [9] | mortality at 200 ppm [3] | percent effect (mortality or growth inhibition) at 200 ppm [4] | percent effect (mortality or growth inhibition) at 200 ppm [5] | mortality at 24 ppm [6] | mortality at 12.5 ppm [7]

CCS(=O)(=O)c1ccc(-n2cncn2)nc1N1Cc2cnc(C(F)(F)F)cc2C1=O [Compound P5, 2-[3-ethylsulfonyl-6-(1,2,4-triazol-1-yl)-2-pyridyl]-6-(trifluoromethyl)-3H-pyrrolo[3,4-c]pyridin-1-one]
≥ 80%: percent control (mortality, anti-feedant effect or growth inhibition) at 200 ppm [1] | mortality at 50 ppm [8] | percent effect (mortality or growth inhibition) at 200 ppm [2] | mortality at 50 ppm [9] | mortality at 200 ppm [3] | percent effect (mortality or growth inhibition) at 200 ppm [4] | percent effect (mortality or growth inhibition) at 200 ppm [5] | mortality at 24 ppm [6] | mortality at 200 ppm [10] | mortality at 12.5 ppm [7]

CCS(=O)(=O)c1ccc(N(C)C(=O)NC)nc1N1Cc2cnc(C(F)(F)F)cc2C1=O [Compound P6, 1-[5-ethylsulfonyl-6-[1-oxo-6-(trifluoromethyl)-3H-pyrrolo[3,4-c]pyridin-2-yl]-2-pyridyl]-1,3-dimethyl-urea]
≥ 80%: mortality at 50 ppm [8] | percent effect (mortality or growth inhibition) at 200 ppm [2] | mortality at 200 ppm [3] | percent effect (mortality or growth inhibition) at 200 ppm [4] | percent effect (mortality or growth inhibition) at 200 ppm [5] | mortality at 24 ppm [6] | mortality at 200 ppm [10] | mortality at 12.5 ppm [7]

CCS(=O)(=O)c1cc(-n2ccc(C(F)(F)F)n2)cnc1N1Cc2cnc(C(F)(F)F)cc2C1=O [Compound P9, 2-[3-ethylsulfonyl-5-[3-(trifluoromethyl)pyrazol-1-yl]-2-pyridyl]-6-(trifluoromethyl)-3H-pyrrolo[3,4-c]pyridin-1-one]
≥ 80%: percent control (mortality, anti-feedant effect or growth inhibition) at 200 ppm [1] | percent effect (mortality or growth inhibition) at 200 ppm [2] | mortality at 50 ppm [9] | mortality at 200 ppm [3] | percent effect (mortality or growth inhibition) at 200 ppm [4] | percent effect (mortality or growth inhibition) at 200 ppm [5] | mortality at 200 ppm [10] | mortality at 12.5 ppm [7]

CCS(=O)(=O)c1cc(C(F)(F)F)cnc1N1Cc2cnc(C(F)(F)F)cc2C1=O [Compound P10, 2-[3-ethylsulfonyl-5-(trifluoromethyl)-2-pyridyl]-6-(trifluoromethyl)-3H-pyrrolo[3,4-c]pyridin-1-one]
≥ 80%: percent control (mortality, anti-feedant effect or growth inhibition) at 200 ppm [1] | mortality at 50 ppm [8] | percent effect (mortality or growth inhibition) at 200 ppm [2] | mortality at 50 ppm [9] | mortality at 200 ppm [3] | percent effect (mortality or growth inhibition) at 200 ppm [4] | percent effect (mortality or growth inhibition) at 200 ppm [5] | mortality at 24 ppm [6] | mortality at 200 ppm [10] | mortality at 12.5 ppm [7]

CCS(=O)(=O)c1cc(C2(C#N)CC2)cnc1N1Cc2ncc(C(F)(F)F)cc2C1=O [Compound P11, 1-[5-ethylsulfonyl-6-[5-oxo-3-(trifluoromethyl)-7H-pyrrolo[3,4-b]pyridin-6-yl]-3-pyridyl]cyclopropanecarbonitrile]
≥ 80%: percent control (mortality, anti-feedant effect or growth inhibition) at 200 ppm [1] | mortality at 50 ppm [8] | percent effect (mortality or growth inhibition) at 200 ppm [2] | mortality at 50 ppm [9] | mortality at 200 ppm [3] | percent effect (mortality or growth inhibition) at 200 ppm [4] | percent effect (mortality or growth inhibition) at 200 ppm [5] | mortality at 24 ppm [6] | mortality at 200 ppm [10] | mortality at 12.5 ppm [7]

CCS(=O)(=O)c1cc(Oc2ccccn2)cnc1N1Cc2cnc(C(F)(F)F)cc2C1=O [Compound P12, 2-[3-ethylsulfonyl-5-(2-pyridyloxy)-2-pyridyl]-6-(trifluoromethyl)-3H-pyrrolo[3,4-c]pyridin-1-one]
≥ 80%: percent control (mortality, anti-feedant effect or growth inhibition) at 200 ppm [1] | percent effect (mortality or growth inhibition) at 200 ppm [2] | mortality at 200 ppm [3] | percent effect (mortality or growth inhibition) at 200 ppm [4] | percent effect (mortality or growth inhibition) at 200 ppm [5] | mortality at 24 ppm [6] | mortality at 12.5 ppm [7]

CCS(=O)(=O)c1cc(-n2ccc(Cl)n2)cnc1N1Cc2cnc(C(F)(F)F)cc2C1=O [Compound P13, 2-[5-(3-chloropyrazol-1-yl)-3-ethylsulfonyl-2-pyridyl]-6-(trifluoromethyl)-3H-pyrrolo[3,4-c]pyridin-1-one]
≥ 80%: percent control (mortality, anti-feedant effect or growth inhibition) at 200 ppm [1] | percent effect (mortality or growth inhibition) at 200 ppm [2] | mortality at 200 ppm [3] | percent effect (mortality or growth inhibition) at 200 ppm [4] | percent effect (mortality or growth inhibition) at 200 ppm [5] | mortality at 200 ppm [10] | mortality at 12.5 ppm [7]

CCS(=O)(=O)c1ccc(N(C)C(=O)C2CC2)nc1N1Cc2cnc(C(F)(F)F)cc2C1=O [Compound P18, N-[5-ethylsulfonyl-6-[1-oxo-6-(trifluoromethyl)-3H-pyrrolo[3,4-c]pyriclin-2-yl]-2-pyridyl]-N-methyl-cyclopropanecarboxamide]
≥ 80%: percent control (mortality, anti-feedant effect or growth inhibition) at 200 ppm [1] | mortality at 50 ppm [8] | percent effect (mortality or growth inhibition) at 200 ppm [2] | mortality at 50 ppm [9] | mortality at 200 ppm [3] | percent effect (mortality or growth inhibition) at 200 ppm [4] | percent effect (mortality or growth inhibition) at 200 ppm [5] | mortality at 24 ppm [6] | mortality at 200 ppm [10] | mortality at 12.5 ppm [7]
